Experimental data as given in patent US20040024024A1, “Aromatic sulfone hydroxamates and their use as protease inhibitors” (priority 2001, published 2004).

Experiments:
Experiment in all cases: In vitro MMP inhibition, Ki determination (fluorogenic substrate II)
Type in all cases: biochemical
Human recombinant MMP-14 = target: T1, Human recombinant MMP-14 (Homo sapiens, UniProt P50281)
T1 construct: The catalytic domain enzyme was expressed in E. coli inclusion bodies, solubilized in urea; made in house
Summary of the method: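 Refolded E. coli-expressed MMP-14 catalytic domain, APMA- or trypsin-activated, incubated 1 h at room temperature with 4 μM fluorogenic substrate II in pH 7.5 Tris/NaCl/CaCl2 buffer; fluorescence read at 330/420 nm. Ki from Morrison-equation non-linear regression, substrate at or below Km, uncorrected for substrate.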

Human recombinant MMP-13 = target: T2, Human recombinant MMP-13 (Homo sapiens, UniProt P45452)
T2 construct: made in house; host or cells: baculovirus / insect cells
Summary of the method: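 Baculovirus-expressed proenzyme, APMA-activated; 4 μM fluorogenic MCA/Dpa peptide substrate (II), at or below Km, in Tris buffer pH 7.5 with CaCl2, 1 hr at room temperature. Fluorescence at 330/420 nm; Ki from non-linear regression with Morrison's equation, not corrected for substrate.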

Human recombinant MMP-9 = target: T3, Human recombinant MMP-9 (Homo sapiens, UniProt P14780)
T3 construct: made in house; host or cells: MMP-9-transfected HT1080 cells (spent media)
Summary of the method: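 MMP-9 proenzyme purified from transfected HT1080 cell media, activated with APMA, trypsin or recombinant MMP-3; hydroxamates diluted in pH 7.5 Tris/NaCl/CaCl2 buffer. Cleavage of 4 μM MCA/Dpa substrate II followed by fluorescence (ex 330/em 420 nm), 1 h at room temperature. Ki from Morrison-equation fit, substrate at/below Km, uncorrected.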

T3 sequence (P14780 107-707 limits assumed): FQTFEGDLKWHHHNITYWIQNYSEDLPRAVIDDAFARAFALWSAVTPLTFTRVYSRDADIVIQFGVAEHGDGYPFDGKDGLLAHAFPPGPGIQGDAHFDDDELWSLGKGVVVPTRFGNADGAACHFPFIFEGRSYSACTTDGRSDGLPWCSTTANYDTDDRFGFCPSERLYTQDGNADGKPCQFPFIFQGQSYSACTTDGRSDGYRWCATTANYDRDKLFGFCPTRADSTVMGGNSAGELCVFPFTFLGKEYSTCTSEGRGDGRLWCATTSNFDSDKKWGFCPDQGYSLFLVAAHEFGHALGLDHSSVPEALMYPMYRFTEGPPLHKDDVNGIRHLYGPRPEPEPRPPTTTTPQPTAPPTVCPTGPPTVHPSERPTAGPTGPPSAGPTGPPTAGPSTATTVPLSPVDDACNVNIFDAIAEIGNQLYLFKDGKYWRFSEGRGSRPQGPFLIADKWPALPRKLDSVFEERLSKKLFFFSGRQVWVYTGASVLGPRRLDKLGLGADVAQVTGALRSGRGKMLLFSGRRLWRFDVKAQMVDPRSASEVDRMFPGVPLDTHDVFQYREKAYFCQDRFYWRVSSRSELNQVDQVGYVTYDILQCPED

Row | Structure (SMILES) | Ki (Human recombinant MMP-14; value in parenthesis) [nM] | Ki (Human recombinant MMP-13; value in parenthesis) [nM] | Ki (Human recombinant MMP-9; value in parenthesis) [nM] | Ki (Human recombinant MMP-14; value in parentheses) [nM] | Ki (Human recombinant MMP-13; value in parentheses) [nM] | Ki (Human recombinant MMP-9; value in parentheses) [nM]
1 | O=C(NO)C1(S(=O)(=O)c2ccc(OCCc3cccc(-c4ccncc4)c3)cc2)CCOCC1 [Example 113] | 3480 | 0.312 | 161 |  |  | 
2 | O=C(CCCOc1ccc(S(=O)(=O)C2(C(=O)NO)CCOCC2)cc1)Nc1ccc(OC(F)(F)F)cc1 [Example 250] | 1700 | 0.127 | 12.5 |  |  | 
3 | O=C(NO)C1(S(=O)(=O)c2ccc(OCCCc3cccc(-c4cccs4)c3)cc2)CCOCC1 [Example 595] |  |  |  | > 10000 | 7.25 | 2060
4 | COCCN1CCC(C(=O)NO)(S(=O)(=O)c2ccc(OCCCc3nc(-c4ccccc4OC(F)(F)F)no3)cc2)CC1 [Example 152] | > 10000 | 2.66 | 44.5 |  |  | 
5 | CCc1ccccc1-c1noc(CCCOc2ccc(S(=O)(=O)C3(C(=O)NO)CCN(CCOC)CC3)cc2)n1 [Example 155] | 9370 | 1.58 | 172 |  |  | 
6 | O=C(CCCOc1ccc(S(=O)(=O)C2(C(=O)NO)CCOCC2)cc1)Nc1ccc(OC(F)(F)F)cc1 [Example 228] | 6290 | 0.324 | 247 |  |  | 
7 | O=C(NO)C1(S(=O)(=O)c2ccc(OCCCc3ccnc(-c4ccccc4)c3)cc2)CCOCC1 [Example 197] | > 10000 | 0.37 | 334 |  |  | 
8 | O=C(NO)C1(S(=O)(=O)c2ccc(OCCCc3cccc(Br)c3)cc2)CCOCC1 [Example 154] | 3910 | 0.95 | 151 |  |  | 
9 | O=C(NO)C1(S(=O)(=O)c2ccc(OCCCc3cc(-c4ccc(F)cc4F)cs3)cc2)CCOCC1 [Example 587] |  |  |  | 4150 | 1.42 | 8180
10 | CCN1CCC(C(=O)NO)(S(=O)(=O)c2ccc(OCCCSc3nc4ccccc4s3)cc2)CC1 [Example 591] |  |  |  | 8740 | 0.19 | 4.22
